Measured values reported in patent US20240142467A1, “Use of Biomarkers in the Treatment of Fibrotic Conditions with a PDE4B-inhibitor” (Boehringer Ingelheim International GmbH, priority 2022, published 2024).
Like-named read-outs stand apart in the source and are kept apart here.

How the values were obtained:
[1] = tested on: IPF-rc-stimulated primary human small airway epithelial cells (SAEC); assay: Biomarker release of IPF-rc-stimulated small airway epithelial cells (ELISA of supernatants); format: cell-based; details: for inhibition at 10 µM / IC50: Homo sapiens; for inhibition at 10 µM: SAEC, highest concentration 10 μM; for IC50: SAEC from 5 donors, 30 min pre-stimulation, supernatants 72 hrs after stimulation
Experimental: Small airway epithelial cells of primary human origin at passage 4 were seeded in PneumaCult-Ex Plus complete medium onto rat tail collagen type I (30 μg/mL in PBS) coated 24-well plates.
After incubation for 24 hrs at 37° C. and 5% CO2 cells were pre-stimulated with the PDE4-inhibitor of formula A′ for 30 min in different concentrations in PneumaCult-Ex Plus starving medium.
Afterwards an IPF-relevant cytokine cocktail (Schruf E, Schroeder V, Le H Q, Schönberger T, Raedel D, Stewart E L, Fundel-Clemens K, Bluhmki T, Weigle S, Schuler M, Thomas M J, Heilker R, Webster M J, Dass M, Frick M, Stierstorfer B, Quast K, Garnett J P. Recapitulating idiopathic pulmonary fibrosis related alveolar epithelial dysfunction in a human iPSC-derived air-liquid interface model. FASEB J. 2020 June; 34(6):7825-7846) was added to induce fibrotic changes. 72 hrs after stimulation supernatants were collected and analyzed using R&D DuoSet ELISAs following the manufacturers protocol.
To determine the inhibitory potency of the PDE4-inhibitor of formula A′ on biomarker release of IPF-rc-stimulated primary human small airway epithelial cells, the supernatants of the cell culture from 5 different donors were analyzed.

[2] = tested on: patients with idiopathic pulmonary fibrosis; assay: Phase 2 trial NCT04419506: treatment-emergent adverse events; details: for mean observed weight loss: over 12 weeks; for Any adverse event: 18 mg twice daily, 12 weeks
Source text: The study was a double-blind, placebo-controlled, parallel-design, Phase 2 study performed at 90 sites in 22 countries. […] After completion of the 12-week treatment period, patients entered a 1-week follow-up period. Patients who prematurely discontinued study medication were asked to attend all visits as originally planned to minimize missing data. […] Patients, investigators, central reviewers, and those involved in the study conduct and analysis were unaware of the treatment assignments. An interactive voice-response system was used to perform randomization.
The secondary endpoint was the percentage of patients with treatment-emergent adverse events.
All treated patients were included in the safety analysis, stratified by use of background antifibrotics (no or yes), and the analysis was descriptive in nature. Safety was assessed by clinical and laboratory evaluation and the recording of treatment-emergent adverse events, as coded with the use of the Medical Dictionary for Regulatory Activities, version 22.0.

[3] = with background antifibrotics (N = 49)
[4] = without background antifibrotics
[5] = without background antifibrotics (N = 48)

## [O-][S@+]1CCc2nc(N3CCC(c4ncc(Cl)cn4)CC3)nc(NC3(CO)CCC3)c21 [Compound of formula A′]
[1]; read-out: maximal inhibition of CTGF release
  inhibition at 10 µM: 75%
[1]; read-out: maximal inhibition of MMP7 release
  inhibition at 10 µM: 63%
[1]; read-out: maximal inhibition of OPN release
  inhibition at 10 µM: 67%
[1]; read-out: maximal inhibition of sICAM release
  inhibition at 10 µM: 39%
[1]; read-out: IC50 of IPF-rc-induced release of CTGF
  IC50: ~370 nM
[1]; read-out: IC50 of IPF-rc-induced release of MMP7
  IC50: ~4400 nM
[1]; read-out: IC50 of IPF-rc-induced release of OPN
  IC50: ~1100 nM
[1]; read-out: IC50 of IPF-rc-induced release of sICAM
  IC50: ~537 nM
[1]; IPF-rc-stimulated SAEC
  inhibition of the release of PAI1 (plasminogen activator inhibitor 1): concentration dependent manner
[2]; group with antifibrotics
  mean observed weight loss: -1.41 kg
[2]; group without antifibrotics
  mean observed weight loss: -0.76 kg
[2]; treatment arm, both background groups together
  patients with fatal adverse events: 2 patients
[2]; with background antifibrotics
  discontinuation of the study because of adverse events: 10 patients
  patients with gastrointestinal disorders: 36.7%
  patients with serious adverse events: 6.1%
  patients with severe adverse events: 4.1%
[2]; [3]
  Adverse events leading to discontinuation of study drug: 10 (20.4) n (%)
  Asthenia: 1 (2.0) n (%)
  Cough: 4 (8.2) n (%)
  Decreased appetite: 2 (4.1) n (%)
  Diarrhea: 15 (30.6) n (%)
  Diarrhea leading to discontinuation: 3 (6.1) n (%)
  Dyspepsia: 2 (4.1) n (%)
  Dyspnea: 0 (0.0) n (%)
  Fatigue: 1 (2.0) n (%)
  Flatulence: 2 (4.1) n (%)
  Gastrointestinal disorders: 18 (36.7) n (%)
  General disorders and administration site conditions: 7 (14.3) n (%)
  Headache: 3 (6.1) n (%)
  Infections and infestations: 7 (14.3) n (%)
  Investigations: 10 (20.4) n (%)
  Investigator-defined drug-related adverse events: 18 (36.7) n (%)
  Metabolism and nutrition disorders: 3 (6.1) n (%)
  Nasopharyngitis: 4 (8.2) n (%)
  Nausea: 1 (2.0) n (%)
  Nervous system disorder: 9 (18.4) n (%)
  Patients with pre-specified adverse events of special interest (vasculitis and hepatic injury): 1 (2.0) n (%)
  Respiratory thoracic and mediastinal disorders: 6 (12.2) n (%)
  Serious adverse events: All: 3 (6.1) n (%)
  Serious adverse events: Other comparable medical criteria: 0 (0.0) n (%)
  Serious adverse events: Required or prolonged hospitalization: 3 (6.1) n (%)
  Serious adverse events: Resulted in death: 1 (2.0) n (%)
  Severe adverse events: 2 (4.1) n (%)
  Vomiting: 2 (4.1) n (%)
  Weight decreased: 1 (2.0) n (%)
  Any adverse event: 36 (73.5) n (%)
[2]; without antifibrotics
  patients with serious adverse events: 6.3%
[2]; [4]
  discontinuation of the study because of adverse events: 3 patients
  patients with gastrointestinal disorders: 27.1%
  patients with severe adverse events: 4.2%
[2]; [5]
  Adverse events leading to discontinuation of study drug: 3 (6.3) n (%)
  Asthenia: 3 (6.3) n (%)
  Cough: 3 (6.3) n (%)
  Decreased appetite: 1 (2.1) n (%)
  Diarrhea: 8 (16.7) n (%)
  Diarrhea leading to discontinuation: 0 (0.0) n (%)
  Dyspepsia: 3 (6.3) n (%)
  Dyspnea: 3 (6.3) n (%)
  Fatigue: 2 (4.2) n (%)
  Flatulence: 3 (6.3) n (%)
  Gastrointestinal disorders: 13 (27.1) n (%)
  General disorders and administration site conditions: 9 (18.8) n (%)
  Headache: 3 (6.3) n (%)
  Infections and infestations: 6 (12.5) n (%)
  Investigations: 5 (10.4) n (%)
  Investigator-defined drug-related adverse events: 9 (18.8) n (%)
  Metabolism and nutrition disorders: 1 (2.1) n (%)
  Nasopharyngitis: 0 (0.0) n (%)
  Nausea: 2 (4.2) n (%)
  Nervous system disorder: 4 (8.3) n (%)
  Patients with pre-specified adverse events of special interest (vasculitis and hepatic injury): 0 (0.0) n (%)
  Respiratory thoracic and mediastinal disorders: 8 (16.7) n (%)
  Serious adverse events: All: 3 (6.3) n (%)
  Serious adverse events: Other comparable medical criteria: 1 (2.1) n (%)
  Serious adverse events: Required or prolonged hospitalization: 2 (4.2) n (%)
  Serious adverse events: Resulted in death: 1 (2.1) n (%)
  Severe adverse events: 2 (4.2) n (%)
  Vomiting: 1 (2.1) n (%)
  Weight decreased: 2 (4.2) n (%)
  Any adverse event: 31 (64.6) n (%)
